Test results published in patent US6150385A, “1,3,4-thiadiazoles useful for the treatment of CMV infections” (Pharmacia & Upjohn Company, priority 1999, dated 2000).

Molecular target: T1, HCMV polymerase (Human cytomegalovirus, UniProt P08546)
T1 construct: made in house; host or cells: SF-9 insect cells infected with recombinant baculovirus
Experiment: HCMV polymerase assay (scintillation proximity assay)
Format: biochemical
Details: percentage of inhibition at 25 μM concentration in CMV polymerase assay
How it was run: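 Values are percent inhibition at 25 μM, measured by scintillation proximity after capture of biotinylated poly(dA)-oligo(dT) (6 nM) extended with 90 nM 3H-dTTP. Recombinant SF-9-derived enzyme reacted 30 min at 25 or 37 °C in HEPES pH 7.5/KCl/MgCl2/BSA buffer, ±2 mM CHAPS, before EDTA termination.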

T1 sequence (P08546 whole entry): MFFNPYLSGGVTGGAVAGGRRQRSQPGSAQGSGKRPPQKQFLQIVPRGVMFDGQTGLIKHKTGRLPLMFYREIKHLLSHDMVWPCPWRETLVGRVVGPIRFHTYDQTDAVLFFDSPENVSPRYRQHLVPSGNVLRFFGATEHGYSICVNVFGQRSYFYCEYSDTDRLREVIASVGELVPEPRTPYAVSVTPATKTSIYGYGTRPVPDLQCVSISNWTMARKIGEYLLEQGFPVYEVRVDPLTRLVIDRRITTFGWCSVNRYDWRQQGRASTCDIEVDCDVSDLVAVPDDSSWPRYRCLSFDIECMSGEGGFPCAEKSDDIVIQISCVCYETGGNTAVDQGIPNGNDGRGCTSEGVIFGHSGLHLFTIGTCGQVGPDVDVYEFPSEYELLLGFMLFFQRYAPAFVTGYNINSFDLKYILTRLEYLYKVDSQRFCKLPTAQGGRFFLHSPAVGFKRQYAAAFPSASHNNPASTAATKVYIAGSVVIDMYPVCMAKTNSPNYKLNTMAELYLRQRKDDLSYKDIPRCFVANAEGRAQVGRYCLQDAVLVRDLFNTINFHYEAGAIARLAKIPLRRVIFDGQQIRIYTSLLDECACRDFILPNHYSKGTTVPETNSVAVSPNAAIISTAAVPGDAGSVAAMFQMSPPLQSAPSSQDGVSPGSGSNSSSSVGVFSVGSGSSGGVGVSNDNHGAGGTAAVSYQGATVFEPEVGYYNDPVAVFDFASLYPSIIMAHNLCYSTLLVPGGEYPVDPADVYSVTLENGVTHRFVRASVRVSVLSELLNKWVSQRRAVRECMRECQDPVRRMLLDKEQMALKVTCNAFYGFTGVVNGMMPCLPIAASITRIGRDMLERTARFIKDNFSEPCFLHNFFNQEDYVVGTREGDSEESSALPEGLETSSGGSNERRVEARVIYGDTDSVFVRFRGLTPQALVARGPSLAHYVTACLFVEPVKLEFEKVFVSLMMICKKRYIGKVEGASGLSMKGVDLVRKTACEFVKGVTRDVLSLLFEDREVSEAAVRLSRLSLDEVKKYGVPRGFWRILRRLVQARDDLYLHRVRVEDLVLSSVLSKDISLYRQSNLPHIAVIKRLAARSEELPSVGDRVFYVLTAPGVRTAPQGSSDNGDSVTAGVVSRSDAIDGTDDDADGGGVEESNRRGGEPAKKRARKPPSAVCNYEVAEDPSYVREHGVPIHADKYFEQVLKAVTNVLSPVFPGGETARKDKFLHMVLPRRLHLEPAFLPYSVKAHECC

Row | Structure (SMILES) | inhibition at 25 µM [%] | % Inhib [%]
1 | CCOC(=O)N1CCC(Nc2nnc(NC(=O)c3c(Cl)cccc3Cl)s2)CC1 [compound 132, ethyl 4-({5-[(2,6-dichlorobenzoyl)amino]-1,3,4-thiadiazol-2-yl}amino)tetrahydro-1(2H)-pyridinecarboxylate] | 57 | 
2 | O=C(Nc1nnc(NCCCNC2CCCCC2)s1)c1ccc2c(c1)C(=O)OC2=O [compound 2, N-(5-{[3-(cyclohexylamino)propyl]amino}-1,3,4-thiadiazol-2-yl)-1,3-dioxo-1,3-dihydro-2-benzofuran-5-carboxamide] | 100 | 
3 | COc1ccccc1C(=O)Nc1nnc(NC[C@@H]2CCC3CC2C3(C)C)s1 (stereo partly drawn) [compound 22, N-[5-({[(2R)-6,6-dimethylbicyclo[3.1.1]hept-2-yl]methyl}amino)-1,3,4-thiadiazol-2-yl]-2-methoxybenzamide] | 97.2 | 
4 | O=C(Nc1nnc(NC2CCCCCC2)s1)c1ccc([N+](=O)[O-])o1 [compound 104, N-[5-(cycloheptylamino)-1,3,4-thiadiazol-2-yl]-5-nitro-2-furamide] | 64.7 | 
5 | O=C(Nc1nnc(NC2CCc3ccccc32)s1)c1cccc([N+](=O)[O-])c1 (stereo not shown) [compound 355, N-[5-(2,3-dihydro-1H-inden-1-ylamino)-1,3,4-thiadiazol-2-yl]-3-nitrobenzamide] | 29.8 | 
6 | O=C(/C=C/c1ccccc1Cl)Nc1nnc(NCCCNC2CCCCC2)s1 [compound 75, (E)-3-(2-chlorophenyl)-N-(5-{[3-(cyclohexylamino)propyl]amino}-1,3,4-thiadiazol-2-yl)-2-propenamide] | 68.8 | 
7 | CCCCCCCCCCCNc1nnc(NC(=O)c2ccc(C(F)(F)F)cc2)s1 [compound 239, 4-(trifluoromethyl)-N-[5-(undecylamino)-1,3,4-thiadiazol-2-yl]benzamide] | 41.4 | 
8 | COc1ccccc1C(=O)Nc1nnc(NCCC(c2ccccc2)c2ccccc2)s1 [compound 383, N-{5-[(3,3-diphenylpropyl)amino]-1,3,4-thiadiazol-2-yl}-2-methoxybenzamide] | 27.3 | 
9 | CCOC(=O)N1CCC(Nc2nnc(NC(=O)/C=C/c3ccccc3Cl)s2)CC1 [compound 344] | 31.1 | 
10 | O=C(Nc1nnc(NCCCN2CCCC2=O)s1)c1ccc(Cl)c(Cl)c1 [compound 191, 3,4-dichloro-N-(5-{[3-(2-oxo-1-pyrrolidinyl)propyl]amino}-1,3,4-thiadiazol-2-yl)benzamide] | 47.1 | 
11 | CCCCCCCC/C=C/CCCCCCCC(=O)Nc1nnc(NCCc2ccc(S(N)(=O)=O)cc2)s1 [compound 336, (E)-N-(5-{[4-(aminosulfonyl)phenethyl]amino}-1,3,4-thiadiazol-2-yl)-9-octadecenamide] | 31.6 | 
12 | O=C(Nc1nnc(NCCN2CCOCC2)s1)c1cc2ccccc2s1 [compound 453, N-{5-[(2-morpholinoethyl)amino]-1,3,4-thiadiazol-2-yl}-1-benzothiophene-2-carboxamide] | 21.2 | 
13 | O=C(Nc1nnc(NCc2ccc(F)cc2)s1)c1ccc2c(c1)C(=O)OC2=O [compound 7, N-{5-[(4-fluorobenzyl)amino]-1,3,4-thiadiazol-2-yl}-1,3-dioxo-1,3-dihydro-2-benzofuran-5-carboxamide] | 99.8 | 
14 | CC(C)(C)OC(=O)CCNc1nnc(NC(=O)c2ccc(C(F)(F)F)cc2)s1 [compound 407, tert-butyl 3-[(5-{[4-(trifluoromethyl)benzoyl]amino}-1,3,4-thiadiazol-2-yl)amino]propanoate] | 25 | 
15 | N#Cc1ccc(C(=O)Nc2nnc(NC3CCCCCC3)s2)cc1 [compound 103, 4-cyano-N-[5-(cycloheptylamino)-1,3,4-thiadiazol-2-yl]benzamide] | 64.9 | 
16 | NS(=O)(=O)c1ccc(CNc2nnc(NC(=O)/C=C/c3ccccc3Cl)s2)cc1 [compound 88, (E)-N-(5-{[4-(aminosulfonyl)benzyl]amino}-1,3,4-thiadiazol-2-yl)-3-(2-chlorophenyl)-2-propenamide] | 66.5 | 
17 | CCCCCCCC/C=C/CCCCCCCC(=O)Nc1nnc(NCCCNC2CCCCC2)s1 [compound 1, (E)-N-(5-{[3-(cyclohexylamino)propyl]amino}-1,3,4-thiadiazol-2-yl)-9-octadecenamide] | 100 | 
18 | CCCCCCCC/C=C/CCCCCCCC(=O)Nc1nnc(NCC(CC)CCCC)s1 (stereo not shown) [compound 286, (E)-N-{5-[(2-ethylhexyl)amino]-1,3,4-thiadiazol-2-yl}-9-octadecenamide] | 36.3 | 
19 | O=C(Nc1nnc(NCCCNC2CCCCC2)s1)c1ccc(C(F)(F)F)cc1 [compound 112, N-(5-{[3-(cyclohexylamino)propyl]amino}-1,3,4-thiadiazol-2-yl)-4-(trifluoromethyl)benzamide] | 62.5 | 
20 | CC(C)c1cc(C(C)C)c(C(=O)Nc2nnc(NCCCNC3CCCCC3)s2)c(C(C)C)c1 [compound 36, N-(5-{[3-(cyclohexylamino)propyl]amino}-1,3,4-thiadiazol-2-yl)-2,4,6-triisopropylbenzamide] | 87.6 | 
21 | O=C(Nc1nnc(NCCCNC2CCCCC2)s1)c1ccc(S(=O)(=O)F)cc1 [compound 189, 4-{[(5-{[3-(cyclohexylamino)propyl]amino}-1,3,4-thiadiazol-2-yl)amino]carbonyl}benzenesulfonyl fluoride] |  | 47.1

Now from value to compound, other results behind:

Row | inhibition at 25 µM [%] | Structure (SMILES) | % Inhib [%]
22 | 38.7 | NS(=O)(=O)c1ccc(CCNc2nnc(NC(=O)c3cc4ccccc4s3)s2)cc1 [compound 267, N-(5-{[4-(aminosulfonyl)phenethyl]amino}-1,3,4-thiadiazol-2-yl)-1-benzothiophene-2-carboxamide] | 
23 | 39.5 | O=C(/C=C/c1ccccc1)Nc1nnc(NCCc2ccccc2)s1 [compound 262, (E)-N-[5-(phenethylamino)-1,3,4-thiadiazol-2-yl]-3-phenyl-2-propenamide] | 
24 | 21.6 | CCSCCNc1nnc(NC(=O)c2ccc(Cl)c(Cl)c2)s1 [compound 447, 3,4-dichloro-N-(5-{[2-(ethylsulfanyl)ethyl]amino]-1,3,4-thiadiazol-2-yl)benzamide] | 
25 | 20.3 | CCOc1ccc2ccccc2c1C(=O)Nc1nnc(NCCNC(C)=O)s1 [compound 463, N-(5-{[2-(acetylamino)ethyl]amino}-1,3,4-thiadiazol-2-yl)-2-ethoxy-1-naphthamide] | 
26 | 26.1 | Cc1ccc(C(=O)Nc2nnc(NCCNc3ccccc3)s2)cc1 [compound 393, N-{5-[(2-anilinoethyl)amino]-1,3,4-thiadiazol-2-yl}-4-methylbenzamide] | 
27 | 31.9 | O=C(/C=C/c1ccccc1)Nc1nnc(NCc2ccc(Cl)c(Cl)c2)s1 [compound 333, (E)-N-{5-[(3,4-dichlorobenzyl)amino]-1,3,4-thiadiazol-2-yl}-3-phenyl-2-propenamide] | 
28 | 24.7 | CC(=O)NCCNc1nnc(NC(=O)c2cc3ccccc3s2)s1 [compound 412, N-(5-{[2-(acetylamino)ethyl]amino}-1,3,4-thiadiazol-2-yl)-1-benzothiophene-2-carboxamide] | 
29 | 35.4 | O=C(/C=C/c1ccccc1Cl)Nc1nnc(NCCNc2ccccc2)s1 [compound 294, (E)-N-{5-[(2-anilinoethyl)amino]-1,3,4-thiadiazol-2-yl}-3-(2-chlorophenyl)-2-propenamide] | 
30 | 55.4 | NS(=O)(=O)c1ccc(CCNc2nnc(NC(=O)c3ccc(Cl)c(Cl)c3)s2)cc1 [compound 142, N-(5-{[4-(aminosulfonyl)phenethyl]amino}-1,3,4-thiadiazol-2-yl)-3,4-dichlorobenzamide] | 
31 | 28.1 | O=C(Nc1nnc(NCCCCc2ccccc2)s1)c1cc(F)cc(F)c1 [compound 373, 3,5-difluoro-N-{5-[(4-phenylbutyl)amino]-1,3,4-thiadiazol-2-yl}benzamide] | 
32 | 41.3 | O=C(/C=C/c1ccccc1Cl)Nc1nnc(NCCC(c2ccccc2)c2ccccc2)s1 [compound 240, (E)-3-(2-chlorophenyl)-N-{5-[(3,3-diphenylpropyl)amino]-1,3,4-thiadiazol-2-yl}-2-propenamide] | 
33 | 46.2 | O=C(Nc1nnc(NCCCCc2ccccc2)s1)c1ccc(F)cc1F [compound 197, 2,4-difluoro-N-{5-[(4-phenylbutyl)amino]-1,3,4-thiadiazol-2-yl}benzamide] | 
34 | 32.5 | COc1ccccc1C(=O)Nc1nnc(NCCc2ccccc2)s1 [compound 327, 2-methoxy-N-[5-(phenethylamino)-1,3,4-thiadiazol-2-yl]benzamide] | 
35 | 22.6 | O=C(Nc1nnc(NCCNc2ccccc2)s1)c1c(Cl)cccc1Cl [compound 438, N-{5-[(2-anilinoethyl)amino]-1,3,4-thiadiazol-2-yl}-2,6-dichlorobenzamide] | 
36 | 34.8 | O=C(Nc1nnc(NCc2ccc(F)cc2)s1)c1cccc([N+](=O)[O-])c1 [compound 302, N-{5-[(4-fluorobenzyl)amino]-1,3,4-thiadiazol-2-yl}-3-nitrobenzamide] | 
37 | 42.9 | O=C(Nc1nnc(NCCCCc2ccccc2)s1)c1c(Cl)cccc1Cl [compound 225, 2,6-dichloro-N-{5-[(4-phenylbutyl)amino]-1,3,4-thiadiazol-2-yl}benzamide] | 
38 | 55.7 | CCOc1ccc2ccccc2c1C(=O)Nc1nnc(NCCc2c[nH]c3ccccc23)s1 [compound 141, 2-ethoxy-N-(5-{[2-(1H-indol-3-yl)ethyl]amino}-1,3,4-thiadiazol-2-yl)-1-naphthamide] | 
39 | 67.7 | N#Cc1ccc(C(=O)Nc2nnc(NCCc3c[nH]c4ccccc34)s2)cc1 [compound 82, 4-cyano-N-(5-{[2-(1H-indol-3-yl)ethyl]amino}-1,3,4-thiadiazol-2-yl)benzamide] | 
40 | 41.1 | O=C(Nc1nnc(NCCC(c2ccccc2)c2ccccc2)s1)c1ccc(F)cc1F [compound 243, N-{5-[(3,3-diphenylpropyl)amino]-1,3,4-thiadiazol-2-yl}-2,4-difluorobenzamide] | 
